The values below come from patent publication US10494384B2, “Urea peptoid boric acid compound, pharmaceutical composition thereof, preparation method therefor, and uses thereof” (Peking University, priority 2015, dated 2019).

One may read the inhibition as the change of the read-out against control, counted positive when it falls. Broadly, the IC50 is the concentration that gives 50% inhibition.

The target in experiment [1] is T1, 20S proteasome extracted from rat liver (CT-L) (Rattus norvegicus, UniProt P18421+P28075).
T1 construct: 20S proteasome extracted from rat liver; from tissue; host or cells: rat liver
Kind of experiment: inhibition of 20S proteasome, CT-L activity (fluorescent peptide). It counts as biochemical. As to conditions: rat liver 20S proteasome; for inhibition at 0.2 µM / inhibition at 2 µM / inhibition at 20 µM: 37° C., 1 h, read-out: inhibition rates (%) CT-L; for IC50: read-out: IC50 (μM) CT-L. The procedure:
(§1) 1 μg of 20S proteasome extracted from rat liver was incubated with a 100 μL solution containing various concentrations of the present compounds, 50 μM fluorescent peptides and 20 mM Tris-HCl at 37° C. for 1 h, respectively. […] 0.1% DMSO was used as a solvent control. Compared with the fluorescence of solvent control, an inhibition rate or IC50 value was calculated.

Experiment [2] deals with T2, 20S proteasome extracted from rat liver (PGPH) (Rattus norvegicus, UniProt P28073+Q9JHW0).
T2 construct: 20S proteasome extracted from rat liver; from tissue; host or cells: rat liver
Nature of the experiment: inhibition of 20S proteasome, PGPH activity (fluorescent peptide). It counts as biochemical. As to conditions: rat liver 20S proteasome; for inhibition at 0.2 µM / inhibition at 2 µM / inhibition at 20 µM: 37° C., 1 h, read-out: inhibition rates (%) PGPH; for IC50: read-out: IC50 (μM) PGPH. The procedure: as §1

The target in experiment [3] is T3, 20S proteasome extracted from rat liver (T-L) (Rattus norvegicus, UniProt P40112+Q9JHW0).
T3 construct: 20S proteasome extracted from rat liver; from tissue; host or cells: rat liver
Kind of experiment: inhibition of 20S proteasome, T-L activity (fluorescent peptide). It counts as biochemical. As to conditions: rat liver 20S proteasome; for inhibition at 0.2 µM / inhibition at 2 µM / inhibition at 20 µM: 37° C., 1 h, read-out: inhibition rates (%) T-L; for IC50: read-out: IC50 (μM) T-L. The procedure:
as §1

Experiment [4] relates to Hela, human cervical carcinoma. Nature of the experiment: preliminary anti-tumor screening in vitro, MTT method. It is filed as cell-based. As to conditions: read-out: inhibition rates (%) Hela. Summed up:
(§2)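 Inhibition rates measured at 0.1, 1 or 10 μM compound; cell growth read by MTT for Hela, SRB for BGC-823, MCF-7 and A549.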

In another experiment the test system is A549, human lung cancer. Nature of the experiment: preliminary anti-tumor screening in vitro, SRB method. It counts as cell-based. As to conditions: read-out: inhibition rates (%) A549. Summed up:
as §2
(In general: The SRB assay estimates cell density from bound dye.)

The test system of a further experiment is BGC-823, liver cancer. The experiment is described as above. It counts as cell-based. As to conditions: Homo sapiens, read-out: inhibition rates (%) BGC-823. Summed up:
as §2

For another experiment, the system named is MCF-7, breast cancer. The description is as above. It counts as cell-based. As to conditions: Homo sapiens, read-out: inhibition rates (%) MCF-7; for inhibition at 0.1 µM: MCF7, 0.1 μM; for inhibition at 1 µM: MCF7, 1 μM; for inhibition at 10 µM: MCF7, 10 μM. Summed up: as §2
For the next experiment, the system named is HepG2 liver cancer cells. Kind of experiment: anti-tumor activity in vitro (IC50), MTT. It counts as cell-based. As to conditions: Homo sapiens, liver cancer cells, 72 h, read-out: IC50 (μM) HepG2. The procedure: (§3) Cancer cells were cultured in vitro. When cell growth reached logarithmic phase, the cells were collected and centrifuged at 1000 rpm for 5 min, before the supernate was removed and the cells were suspended in a moderate amount of medium, and then the concentration of cell was adjusted to 3.5×10^4/mL. The cell suspension was added into a 96-well plate with 100 μL per well and cultured in a cell incubator (37° C., 5% CO2) for 24 h. Then test drugs of different end concentrations were added, and the negative control group was added DMSO (end concentration was 0.5%), while each group afforded three repetitive holes. After cultivation for another 72 h in the cell incubator, a solution containing 5 mg/ml MTT (20 μL) was added into each well and the 96-well plate was placed at 37° C. for 3 h. To each well was added 150 μL DMSO, after oscillation in a shaking table for 5 min, the optical density (OD) values at 492 nm/620 nm were measured. IC50 values were calculated by Prism Graphpad statistical software.

Experiment [5] has as its system MGC803 stomach cancer cells. Nature of the experiment: anti-tumor activity in vitro (IC50), MTT. It is filed as cell-based. As to conditions: Homo sapiens, MGC-803, 72 h. The procedure: as §3
The mark [6] stands for this setting: stomach cancer cells, MTT, read-out: IC50 (μM) MGC803.
The mark [7] stands for this setting: MGC80-3, MTT, value ± spread, read-out: IC50 (μM), growth of stomach cancer cells (MGC80-3).

Read-outs that look alike come from different tables or passages of the source.

For the compound `COc1ccc(OC)c(CNC(=O)N[C@@H](Cc2ccccc2)C(=O)N[C@@H](CC(C)C)B(O)O)c1` [Example 18, N-L-phenylalanyl-L-leucine borate-N′-(2,5-dimethoxy-benzylamine)-urea], the inhibition at 0.2 µM in experiment [1] was 82.1%; in [2], 9.81%; in experiment [3], 4.99%. Besides, the inhibition at 2 µM in [1] was found to be 96.7%; in experiment [2], 68.8%; in [3] it was 56.9%. For the same compound, the inhibition at 20 µM was determined as 98.3% in experiment [1], 97.1% in [2] and 91% in experiment [3]. The inhibition at 0.1 µM was 37.8% in [4]; 44.3% in the experiment with A549, human lung cancer; 41.4% with BGC-823, liver cancer; 25.8% in the experiment with MCF-7, breast cancer. The inhibition at 1 µM in experiment [4] worked out at 39.6%; with A549, human lung cancer, 63.5%; with BGC-823, liver cancer, 46.6%; with MCF-7, breast cancer, 37.5%. The inhibition at 10 µM stood at 46.5% in [4]; 66% in the experiment on A549, human lung cancer; 50% in the experiment with BGC-823, liver cancer; 47.8% with MCF-7, breast cancer. Also, the IC50 in the experiment on HepG2 liver cancer cells was found to be 0.0528 µM; in experiment [5] (setting [6]) it was 0.0106 µM.

`CC(C)C[C@H](NC(=O)[C@H](Cc1ccccc1)NC(=O)NCc1cccc2ccccc12)B(O)O` [Example 34, N-L-phenylalanyl-L-leucine borate-N′-naphth-1-ylmethylamine-urea]: the half-inhibitory concentration (IC50) in [1] came to 0.012 µM; in experiment [2], 0.12 µM; in [3], 0.15 µM; with HepG2 liver cancer cells, 0.0531 µM; in experiment [5] (setting [6]) it was 0.00706 µM.

Take `COc1cc2c(cc1OC)CN(C(=O)N[C@@H](Cc1ccccc1)C(=O)N[C@@H](CC(C)C)B(O)O)CC2` [Example 50, N-L-phenylalanyl-L-leucine borate-N′-6,7-dimethoxy-1,2,3,4-tetrahydroisoquinoline-urea]: in experiment [5] (setting [7]), the IC50 came out at 0.0172 ± 0.002 µM.

Regarding `CC(C)C[C@H](NC(=O)[C@H](Cc1ccccc1)NC(=O)N1CCc2ccccc2C1C)B(O)O` (stereo partly drawn) [Example 39, N-L-phenylalanyl-L-leucine borate-N′-1-methyl-1,2,3,4-tetrahydroisoquinoline-urea], in [5] (setting [7]), the IC50 was found to be 0.139 ± 0.004 µM.

With `CC(C)C[C@H](NC(=O)[C@H](Cc1ccccc1)NC(=O)NCc1ccccc1)B(O)O` [Example 14, N-L-phenylalanyl-L-leucine borate-N′-benzylamine-urea], the inhibition at 0.2 µM is 82.1% in experiment [1], 6.46% in experiment [2] and 5.04% in experiment [3]. The inhibition at 2 µM in [1] turned out to be 96.1%; in experiment [2], 84.6%; in experiment [3], 57.8%. Moreover, the values for the inhibition at 20 µM in experiment [1], in experiment [2] and in experiment [3] were 98.9%, 97% and 88.4%, respectively. Besides, the inhibition at 0.1 µM stood at 40.3% in experiment [4]; 2.67% with A549, human lung cancer; 12.9% with BGC-823, liver cancer; 51.9% with MCF-7, breast cancer. Further, the inhibition at 1 µM in experiment [4] was 43.2%; in the experiment with A549, human lung cancer, 13%; in the experiment with BGC-823, liver cancer it was 33.5%; in the experiment with MCF-7, breast cancer, 67.8%. Further, the inhibition at 10 µM was determined as 53.5% in experiment [4]; 33.3% in the experiment with A549, human lung cancer; 38.2% in the experiment with BGC-823, liver cancer; 72.2% in the experiment on MCF-7, breast cancer. Moreover, the IC50 in the experiment on HepG2 liver cancer cells worked out at 0.0873 µM; in experiment [5] (setting [6]), 0.0188 µM.

As to `CC(C)C[C@H](NC(=O)[C@H](CC(C)C)NC(=O)N1CCc2ccccc2C1)B(O)O` [Example 40, N-L-leucyl-L-leucine borate-N′-1,2,3,4-tetrahydroisoquinoline-urea], in [5] (setting [7]), the IC50 was 0.163 ± 0.008 µM.

In the case of `CC(C)C[C@H](NC(=O)[C@H](CCc1ccccc1)NC(=O)N1CCc2ccccc2C1)B(O)O` [Example 47, N-L-homophenylalanyl-L-leucine borate-N′-1,2,3,4-tetrahydroisoquinoline-urea], the IC50 in experiment [5] (setting [7]) was found to be 0.0244 ± 0.005 µM.

Take `CC(C)C[C@H](NC(=O)[C@H](Cc1c[nH]c2ccccc12)NC(=O)N1CCc2ccccc2C1)B(O)O` [Example 45, N-L-tryptophanyl-L-leucine borate-N′-1,2,3,4-tetrahydroisoquinoline-urea]: in [5] (setting [7]), the IC50 came to 0.0092 ± 0.001 µM.

Take `CC(C)C[C@H](NC(=O)[C@H](CCC(N)=O)NC(=O)N1CCc2ccccc2C1)B(O)O` [Example 49]: in experiment [5] (setting [7]), the IC50 was found to be 0.0401 ± 0.005 µM.

Turning to `CC[C@H](C)[C@H](NC(=O)N1CCc2ccccc2C1)C(=O)N[C@@H](CC(C)C)B(O)O` [Example 44, N-L-isoleucyl-L-leucine borate-N′-1,2,3,4-tetrahydroisoquinoline-urea], the IC50 in experiment [5] (setting [7]) amounted to 0.139 ± 0.004 µM.

As to `CC(C)C[C@H](NC(=O)[C@H](C)NC(=O)N1CCc2ccccc2C1)B(O)O` [Example 41, N-L-alanyl-L-leucine borate-N′-1,2,3,4-tetrahydroisoquinoline-urea], the IC50 in experiment [5] (setting [7]) came to 0.134 ± 0.003 µM.

For `COc1cccc2c1CCN(C(=O)N[C@@H](Cc1ccccc1)C(=O)N[C@@H](CC(C)C)B(O)O)C2` [Example 54, N-L-phenylalanyl-L-leucine borate-N′-5-methoxy-1,2,3,4-tetrahydroisoquinoline-urea], in experiment [5] (setting [7]), the IC50 turned out to be 0.361 ± 0.088 µM.

Take `CC(C)C[C@H](NC(=O)[C@H](Cc1ccccc1)NC(=O)N1CCc2ccsc2C1)B(O)O` [Example 55, N-L-phenylalanyl-L-leucine borate-N′-4,5,6,7-tetrahydrothieno[2,3-c]pyridine-urea]: the IC50 in experiment [5] (setting [7]) was 0.006 µM.

On to `CC(C)C[C@H](NC(=O)[C@H](Cc1ccccc1)NC(=O)NCc1ccc(-c2ccccc2)cc1)B(O)O` [Example 32, N-L-phenylalanyl-L-leucine borate-N′-p-phenyl-benzylamine-urea], for which the IC50 in [1] came out at 0.0003 µM; in [2], 0.24 µM; in experiment [3] it was 1.15 µM; in the experiment with HepG2 liver cancer cells it was 0.0372 µM; in experiment [5] (setting [6]) it was 0.00587 µM.

Turning to `COc1cccc2c1CN(C(=O)N[C@@H](Cc1ccccc1)C(=O)N[C@@H](CC(C)C)B(O)O)CC2` [Example 53, N-L-phenylalanyl-L-leucine borate-N′-8-methoxy-1,2,3,4-tetrahydroisoquinoline-urea], the IC50 in experiment [5] (setting [7]) is 2.24 ± 0.503 µM.

On to `CC(C)C[C@H](NC(=O)[C@H](Cc1ccc([N+](=O)[O-])cc1)NC(=O)N1CCc2ccccc2C1)B(O)O` [Example 48, N-L-4-nitro-phenylalanyl-L-leucine borate-N′-1,2,3,4-tetrahydroisoquinoline-urea], for which, in [5] (setting [7]), the IC50 turned out to be 0.111 ± 0.009 µM.

For the compound `COc1ccc2c(c1)CN(C(=O)N[C@@H](Cc1ccccc1)C(=O)N[C@@H](CC(C)C)B(O)O)CC2` [Example 51, N-L-phenylalanyl-L-leucine borate-N′-7-methoxy-1,2,3,4-tetrahydroisoquinoline-urea], the IC50 in [5] (setting [7]) was over 100 µM.
